Measured values from patent publication US9340572B2, “Taccalonolide microtubule stabilizers” (THE BOARD OF REGENTS OF THE UNIVERSITY OF TEXAS SYSTEM, priority 2011, dated 2016).

Key:
[1] = tested on: isogenic HeLa-derived cell line that expresses the βIII isotype of tubulin; conditions: cited from earlier work
HeLa cells = test: Cell cycle distribution by flow cytometry; conditions: 18 h; 125 nM AF, 200 nM AI, 35 nM AJ

CC(=O)O[C@H]1C(=O)[C@@]2(C)[C@H]([C@H](OC(=O)c3ccccc3)[C@]3(O)C[C@H](OC(=O)[C@H](O)[C@@H](NC(=O)c4ccccc4)c4ccccc4)C(C)=C1C3(C)C)[C@]1(OC(C)=O)CO[C@@H]1C[C@@H]2O [paclitaxel]
sensitivity of βIII-tubulin-overexpressing cell line compared with parental HeLa cells [1]: less sensitive | effect on cell cycle distribution / mitotic progression (HeLa cells): mitotic arrest
